# Data from patent publication US10363239B2, “Method for inhibiting growth of cancer cells” (Pain Therapeutics, Inc., priority 2013, dated 2019).
# System: melanoma cells
# Assay: Glucose deprivation-induced apoptosis markers (cleaved PARP-1, caspase-3) by Western blotting
# Format: cell-based, human
# Settings: 1 nM; Day 3 and 4
# Method: . Cell density was assessed at day 3 and 4. […] . Data are mean±S.E.M. of ratios (FIG. 4B) and % inhibition (FIG. 4C). […] N=5. *p<0.01 compared to Day 0. #p<0.01 compared to vehicle (open bars).
# . The cells were washed with PBS, incubated in 0.1% fetal bovine serum (FBS) for 16 hours and incubated in glucose-free 0.1% FBS-containing medium for up to 4 days in the presence of vehicle or 1 nM Compound C0105. The cells in the entire well were collected by centrifugation. […] The protein concentrations were measured by the Bradford method.
# The cells were homogenized and the obtained homogenates were centrifuged to remove nucleus and mitochondria. […] The level of apoptotic cell death was determined using Western blotting in 50 μg solubilized cell lysates with antibodies against cleaved PARP-1 (Asp^214) and caspase-3 (Asp^175), both at 1:1000 dilution. […] Bands at the relevant molecular masses of Ki67 and PCNA were quantified by densitometric scan. Membranes were stripped, washed 5× in 0.1% PBST (2 minutes each wash) and the actin content analyzed by immunoblotting using monoclonal anti-actin to illustrate even loading.
smiles,measurement,value
CN1CCC2(CC1)NCC(=O)N2Cc1ccccc1 [Compound C0105],Glucose deprivation-induced cell death by cleaved PARP-1 and caspase-3,reduces glucose deprivation-induced cell death
